# Source: patent US20230085307A1, “PYRIDAZINONE COMPOUND AND HERBICIDE” (NISSAN CHEMICAL CORPORATION, priority 2019, published 2023)
# Tested on: blackgrass
# Test: Test Example 5: herbicidal effect by foliage application, plastic box (Table 20, symbol J)
# Assay type: in vivo, blackgrass (Alopecurus myosuroides)
# Details: foliage application, AAH 320 g/ha, evaluated three weeks after application
# In short: (§1)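 Sow seeds spot-wise in sterilized diluvial soil; cover with ~1.5 cm soil. Grow 14 days in greenhouse, 25° C. to 30° C. Spray foliage with emulsion diluted to predetermined amount. Rate effect after 3 weeks.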
row,Compound,"J: blackgrass, herbicidal effect (criteria 0-5)"
1,Cc1nn(C)c(=O)c(-c2c(-c3ccc(OC(F)F)cc3)sc3ccc(F)cc23)c1OC(=O)c1ccc(Cl)cc1 [2-286],4 (Herbicidal rate of 70% or more and less than 90%)

# Tested on: windgrass
# Test: Test Example 4: herbicidal effect by soil treatment (Table 19, symbol L)
# Assay type: in vivo, windgrass (Apera spica-venti)
# Details: amount of applied herbicide 320 g/ha
# In short: (§2)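 Applied as a water-diluted emulsion, the compound was sprayed onto soil covering newly sown seeds. Evaluation came three weeks after application, in a greenhouse held at 25° C. to 30° C.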
row,Compound,herbicidal effect on L: windgrass
1,Cc1nn(C)c(=O)c(-c2c(-c3ccc(OC(F)F)cc3)sc3ccc(F)cc23)c1OC(=O)c1ccc(Cl)cc1 [2-286],0 (Herbicidal rate of 5% or less (almost no effect))

# Tested on: windgrass
# Test: Test Example 5: herbicidal effect by foliage application, plastic box (Table 20, symbol L)
# Assay type: in vivo, windgrass (Apera spica-venti)
# Details: foliage application, AAH 320 g/ha, evaluated three weeks after application
# In short: as §1
row,Compound,"L: windgrass, herbicidal effect (criteria 0-5)"
1,Cc1nn(C)c(=O)c(-c2c(-c3ccc(OC(F)F)cc3)sc3ccc(F)cc23)c1OC(=O)c1ccc(Cl)cc1 [2-286],0 (Herbicidal rate of 5% or less (almost no effect))

# Tested on: velvetleaf
# Test: Test Example 5: herbicidal effect by foliage application, plastic box (Table 20, symbol M)
# Assay type: in vivo, velvetleaf (Abutilon theophrasti)
# Details: foliage application, AAH 320 g/ha, evaluated three weeks after application
# In short: as §1
row,Compound,"M: velvetleaf, herbicidal effect (criteria 0-5)"
1,Cc1nn(C)c(=O)c(-c2c(-c3ccc(OC(F)F)cc3)sc3ccc(F)cc23)c1OC(=O)c1ccc(Cl)cc1 [2-286],5 (Herbicidal rate of 90% or more (almost completely withered))

# Tested on: barnyard grass
# Test: Test Example 5: herbicidal effect by foliage application, plastic box (Table 20, symbol H)
# Assay type: in vivo, barnyard grass (Echinochloa crus-galli)
# Details: foliage application, AAH 320 g/ha, evaluated three weeks after application
# In short: as §1
row,Compound,"H: barnyard grass, herbicidal effect (criteria 0-5)"
1,Cc1nn(C)c(=O)c(-c2c(-c3ccc(OC(F)F)cc3)sc3ccc(F)cc23)c1OC(=O)c1ccc(Cl)cc1 [2-286],5 (Herbicidal rate of 90% or more (almost completely withered))

# Tested on: chickweed
# Test: Test Example 4: herbicidal effect by soil treatment (Table 19, symbol P)
# Assay type: in vivo, common chickweed (Stellaria media)
# Details: amount of applied herbicide 320 g/ha
# In short: as §2
row,Compound,herbicidal effect on P: chickweed
1,Cc1nn(C)c(=O)c(-c2c(-c3ccc(OC(F)F)cc3)sc3ccc(F)cc23)c1OC(=O)c1ccc(Cl)cc1 [2-286],0 (Herbicidal rate of 5% or less (almost no effect))

# Tested on: Japanese bulrush
# Test: Test Example 1: herbicidal activity, application before weed generation under submerged conditions (Table 16, symbol B)
# Assay type: in vivo, Japanese bulrush (Schoenoplectus juncoides)
# Details: 320 g/ha applied herbicide
# In short: (§3)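 Submerged Wagner pots (alluvial soil, 4 cm water) sown with weed seeds and planted with 2.5-leaf rice seedlings; emulsifiable concentrate diluted in water applied to water surface on sowing day. Held in greenhouse at 25-30 °C; injury scored 0-5 by herbicidal rate after three weeks.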
row,Compound,Herbicidal effect on B: Japanese bulrush (grade 0-5)
1,Cc1nn(C)c(=O)c(-c2c(-c3ccc(OC(F)F)cc3)sc3ccc(F)cc23)c1OC(=O)c1ccc(Cl)cc1 [2-286],3 (Herbicidal rate of 40% or more and less than 70%)

# Tested on: wild oat
# Test: Test Example 5: herbicidal effect by foliage application, plastic box (Table 20, symbol I)
# Assay type: in vivo, wild oat (Avena fatua)
# Details: foliage application, AAH 320 g/ha, evaluated three weeks after application
# In short: as §1
row,Compound,"I: wild oat, herbicidal effect (criteria 0-5)"
1,Cc1nn(C)c(=O)c(-c2c(-c3ccc(OC(F)F)cc3)sc3ccc(F)cc23)c1OC(=O)c1ccc(Cl)cc1 [2-286],1 (Herbicidal rate of 5% or more and less than 20%)

# Tested on: late watergrass
# Test: Test Example 1: herbicidal activity, application before weed generation under submerged conditions (Table 16, symbol A)
# Assay type: in vivo, late watergrass (Echinochloa oryzicola)
# Details: 320 g/ha applied herbicide
# In short: as §3
row,Compound,Herbicidal effect on A: late watergrass (grade 0-5)
1,Cc1nn(C)c(=O)c(-c2c(-c3ccc(OC(F)F)cc3)sc3ccc(F)cc23)c1OC(=O)c1ccc(Cl)cc1 [2-286],5 (Herbicidal rate of 90% or more (almost completely withered))

# Tested on: redroot pigweed
# Test: Test Example 5: herbicidal effect by foliage application, plastic box (Table 20, symbol N)
# Assay type: in vivo, redroot pigweed (Amaranthus retroflexus)
# Details: foliage application, AAH 320 g/ha, evaluated three weeks after application
# In short: as §1
row,Compound,"N: redroot pigweed, herbicidal effect (criteria 0-5)"
1,Cc1nn(C)c(=O)c(-c2c(-c3ccc(OC(F)F)cc3)sc3ccc(F)cc23)c1OC(=O)c1ccc(Cl)cc1 [2-286],5 (Herbicidal rate of 90% or more (almost completely withered))

# Tested on: lambsquarters
# Test: Test Example 4: herbicidal effect by soil treatment (Table 19, symbol O)
# Assay type: in vivo, lambsquarters (Chenopodium album)
# Details: amount of applied herbicide 320 g/ha
# In short: as §2
row,Compound,herbicidal effect on O: lambsquarters
1,Cc1nn(C)c(=O)c(-c2c(-c3ccc(OC(F)F)cc3)sc3ccc(F)cc23)c1OC(=O)c1ccc(Cl)cc1 [2-286],3 (Herbicidal rate of 40% or more and less than 70%)

# Tested on: Chinese sprangletop
# Test: Test Example 3: herbicidal effect by foliage application, Wagner pot (Table 18, symbol D)
# Assay type: in vivo, chinese sprangletop (Leptochloa chinensis)
# Details: amount of applied herbicide 320 g/ha
# In short: (§4)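 Plants were sown in alluvial soil held under 0.1–0.5 cm standing water and grown 14 days in a greenhouse at 25–30 °C. An emulsifiable formulation, water-diluted to the set dose, was then sprayed onto the foliage, and effects were scored three weeks later using previously defined criteria.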
row,Compound,herbicidal effect on D: Chinese sprangletop
1,Cc1nn(C)c(=O)c(-c2c(-c3ccc(OC(F)F)cc3)sc3ccc(F)cc23)c1OC(=O)c1ccc(Cl)cc1 [2-286],4 (Herbicidal rate of 70% or more and less than 90%)

# Tested on: chickweed
# Test: Test Example 5: herbicidal effect by foliage application, plastic box (Table 20, symbol P)
# Assay type: in vivo, common chickweed (Stellaria media)
# Details: foliage application, AAH 320 g/ha, evaluated three weeks after application
# In short: as §1
row,Compound,"P: chickweed, herbicidal effect (criteria 0-5)"
1,Cc1nn(C)c(=O)c(-c2c(-c3ccc(OC(F)F)cc3)sc3ccc(F)cc23)c1OC(=O)c1ccc(Cl)cc1 [2-286],5 (Herbicidal rate of 90% or more (almost completely withered))

# Tested on: barnyard grass
# Test: Test Example 3: herbicidal effect by foliage application, Wagner pot (Table 18, symbol H)
# Assay type: in vivo, barnyard grass (Echinochloa crus-galli)
# Details: amount of applied herbicide 320 g/ha
# In short: as §4
row,Compound,herbicidal effect on H: barnyard grass
1,Cc1nn(C)c(=O)c(-c2c(-c3ccc(OC(F)F)cc3)sc3ccc(F)cc23)c1OC(=O)c1ccc(Cl)cc1 [2-286],5 (Herbicidal rate of 90% or more (almost completely withered))

# Tested on: southern crabgrass
# Test: Test Example 5: herbicidal effect by foliage application, plastic box (Table 20, symbol F)
# Assay type: in vivo, southern crabgrass (Digitaria ciliaris)
# Details: foliage application, AAH 320 g/ha, evaluated three weeks after application
# In short: as §1
row,Compound,"F: southern crabgrass, herbicidal effect (criteria 0-5)"
1,Cc1nn(C)c(=O)c(-c2c(-c3ccc(OC(F)F)cc3)sc3ccc(F)cc23)c1OC(=O)c1ccc(Cl)cc1 [2-286],2 (Herbicidal rate of 20% or more and less than 40%)

# Tested on: Italian ryegrass
# Test: Test Example 4: herbicidal effect by soil treatment (Table 19, symbol K)
# Assay type: in vivo, Italian ryegrass (Lolium multiflorum)
# Details: amount of applied herbicide 320 g/ha
# In short: as §2
row,Compound,herbicidal effect on K: Italian ryegrass
1,Cc1nn(C)c(=O)c(-c2c(-c3ccc(OC(F)F)cc3)sc3ccc(F)cc23)c1OC(=O)c1ccc(Cl)cc1 [2-286],5 (Herbicidal rate of 90% or more (almost completely withered))

# Tested on: rice flat sedge
# Test: Test Example 3: herbicidal effect by foliage application, Wagner pot (Table 18, symbol E)
# Assay type: in vivo, rice flat sedge (Cyperus iria)
# Details: amount of applied herbicide 320 g/ha
# In short: as §4
row,Compound,herbicidal effect on E: rice flat sedge
1,Cc1nn(C)c(=O)c(-c2c(-c3ccc(OC(F)F)cc3)sc3ccc(F)cc23)c1OC(=O)c1ccc(Cl)cc1 [2-286],4 (Herbicidal rate of 70% or more and less than 90%)

# Tested on: oval-leafed pondweed
# Test: Test Example 1: herbicidal activity, application before weed generation under submerged conditions (Table 16, symbol C)
# Assay type: in vivo, oval-leafed pondweed (Monochoria vaginalis)
# Details: 320 g/ha applied herbicide
# In short: as §3
row,Compound,Herbicidal effect on C: oval-leafed pondweed (grade 0-5)
1,Cc1nn(C)c(=O)c(-c2c(-c3ccc(OC(F)F)cc3)sc3ccc(F)cc23)c1OC(=O)c1ccc(Cl)cc1 [2-286],1 (Herbicidal rate of 5% or more and less than 20%)

# Tested on: persian speedwell
# Test: Test Example 4: herbicidal effect by soil treatment (Table 19, symbol R)
# Assay type: in vivo, Persian speedwell (Veronica persica)
# Details: amount of applied herbicide 320 g/ha
# In short: as §2
row,Compound,herbicidal effect on R: persian speedwell
1,Cc1nn(C)c(=O)c(-c2c(-c3ccc(OC(F)F)cc3)sc3ccc(F)cc23)c1OC(=O)c1ccc(Cl)cc1 [2-286],3 (Herbicidal rate of 40% or more and less than 70%)
